Results on 23 substances are retold here after article PMC4072508, “Genome-Wide Prediction and Validation of Peptides That Bind Human Prosurvival Bcl-2 Proteins” (PLoS Computational Biology, 2014).

Experiment [1] has as its target T1, Bfl-1 (Homo sapiens, UniProt Q16548).
T1 construct: myc- Bfl-1 SPOT array & FP; made in house
T1 sequence (Q16548 with tags, fused parts or gaps): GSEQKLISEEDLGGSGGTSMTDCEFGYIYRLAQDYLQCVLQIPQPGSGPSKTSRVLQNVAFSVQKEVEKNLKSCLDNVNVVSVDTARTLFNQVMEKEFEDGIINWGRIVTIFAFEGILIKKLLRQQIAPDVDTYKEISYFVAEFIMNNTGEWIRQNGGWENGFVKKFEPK
The experiment is described as follows: Peptide SPOT array binding. Here is the method:
(§1) Peptide SPOT arrays were synthesized using F-moc chemistry on nitrocellulose membranes at the MIT Biopolymers facility using an Intavis AutoSpot robot. Peptide spots were cut from the membrane, hydrated in 100% methanol, transferred to TBS (50 mM Tris, pH 8.1, 100 mM NaCl, 0.01% Triton X-100) with 1% bovine serum albumin (BSA), here called blocking buffer, and incubated at room temperature for ∼10 minutes. Membranes were then incubated with 10 ml of 1 µM or 100 nM c-Myc-tagged receptor (sequences in Table S6) in TBS for 1 h at room temperature. Membranes were then rinsed 3× with blocking buffer and then incubated with anti-c-myc-Cy3 antibody (Sigma Aldrich C6594) diluted 100-fold in blocking buffer for 1 hour at room temperature. Membranes were rinsed 3× with blocking buffer and scanned on a Typhoon 9400 (GE Healthcare). Images were analyzed with ImageQuant (GE Healthcare), and Cy3 intensity at 580 nm was averaged over a circular area that was equal in size for all spots for a given membrane. Typically, 5–10 known binders and their negative controls were included.

For experiment [2], the target named is T2, Mcl-1 (Homo sapiens, UniProt Q07820).
T2 construct: myc-Mcl-1 SPOT array & FP; made in house
As to the kind of experiment: Peptide SPOT array binding. Here is the method:
as §1

Experiment [3] deals with T3, Bcl-xL (Homo sapiens, UniProt Q07817).
T3 construct: myc-Bcl-xL SPOT array & FP; made in house
As to the kind of experiment: Peptide SPOT array binding. The settings on record: c-Myc-tagged receptor 1 µM or 100 nM, anti-c-myc-Cy3 read-out. Here is the method:
as §1

Experiment [4] has as its target T4, Bcl-2 (Homo sapiens, UniProt P10415, DEL53-91).
T4 construct: myc- Bcl-2 FP; made in house
The experiment is described as follows: Peptide SPOT array binding. The note with it: c-Myc-tagged receptor 1 µM or 100 nM, anti-c-myc-Cy3 read-out. Here is the method:
as §1

The target in experiment [5] is T5, Bcl-w (Homo sapiens, UniProt Q92843, Q133R).
T5 construct: myc-Bcl-w SPOT array & FP; made in house
T5 sequence (Q92843 with tags, fused parts or gaps Q133R): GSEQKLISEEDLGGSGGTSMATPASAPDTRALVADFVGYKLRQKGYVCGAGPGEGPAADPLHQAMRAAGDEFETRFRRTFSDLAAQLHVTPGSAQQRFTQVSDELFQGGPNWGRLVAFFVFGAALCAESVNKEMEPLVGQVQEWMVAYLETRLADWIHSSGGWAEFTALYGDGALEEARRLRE
As to the kind of experiment: Peptide SPOT array binding. The note with it: c-Myc-tagged receptor 1 µM or 100 nM, anti-c-myc-Cy3 read-out. The method, then:
as §1

Experiment [6] concerns the target T5, Bcl-w. The settings on record: natural BH3 peptides, interactions taken from literature; read-out: Binder class, Bcl-w; cited from earlier work.
The target of experiment [7] is T1, Bfl-1. The settings on record: natural BH3 peptides, interactions taken from literature; read-out: Binder class, Bfl-1; cited from earlier work.
Experiment [8] addresses T4, Bcl-2. The note with it: natural BH3 peptides, interactions taken from literature; read-out: Binder class, Bcl-2; cited from earlier work.
The target in experiment [9] is T2, Mcl-1. The settings on record: read-out: Binder class, Mcl-1, cited from earlier work. The text has this:
Negative control mutatio ...

The target in experiment [10] is T3, Bcl-xL. The note with it: cited from earlier work.
Experiment [11] concerns prosurvival proteins Bcl-xL, Bcl-w, Bcl-2, Mcl-1 and Bfl-1. The experiment is described as follows: Peptide SPOT array binding, receptor not specified. More on the design: species or system human. The note with it: for Reduction in SPOT array signal when control mutations were introduced: 3aD and 3eL negative controls, receptor not specified; for SPOT array binding specificity among five prosurvival proteins: array IV. The method, then:
as §1

Setting [12] is: c-Myc-tagged receptor 1 µM or 100 nM, anti-c-myc-Cy3 read-out.
Where [13] appears, read: natural BH3 peptides, interactions taken from literature.
Setting [14] is: S1 Bim variants, specific binding measured using yeast display, ref Dutta et al. (2010).

Read-outs that look alike come from different tables or passages of the source.

T3 sequence (Q07817 with tags, fused parts or gaps): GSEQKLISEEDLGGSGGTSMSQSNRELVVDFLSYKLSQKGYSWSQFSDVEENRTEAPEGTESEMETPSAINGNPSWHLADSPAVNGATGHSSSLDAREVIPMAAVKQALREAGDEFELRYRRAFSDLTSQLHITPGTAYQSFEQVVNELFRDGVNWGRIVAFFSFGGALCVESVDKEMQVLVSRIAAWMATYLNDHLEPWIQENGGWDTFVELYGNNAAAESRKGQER
T2 sequence (Q07820 with tags, fused parts or gaps): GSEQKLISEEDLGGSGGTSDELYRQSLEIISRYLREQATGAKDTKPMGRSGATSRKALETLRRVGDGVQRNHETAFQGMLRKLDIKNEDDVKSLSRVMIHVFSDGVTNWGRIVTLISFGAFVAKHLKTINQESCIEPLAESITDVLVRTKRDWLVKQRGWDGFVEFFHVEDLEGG
T4 sequence (P10415 with tags, fused parts or gaps DEL53-91): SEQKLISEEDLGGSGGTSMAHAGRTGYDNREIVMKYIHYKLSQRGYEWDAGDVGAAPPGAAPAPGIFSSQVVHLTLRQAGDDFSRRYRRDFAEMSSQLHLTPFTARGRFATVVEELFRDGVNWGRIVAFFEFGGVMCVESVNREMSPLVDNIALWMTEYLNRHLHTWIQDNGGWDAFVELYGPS

Take AAQRYGRELRRMSDEFVDSFKKG [Bad]: on Bfl-1 [1] (3aD / 3eL mutations), the “Reduction in SPOT array signal for at least one of the negative controls, Bfl-1” value was “less than 25%”. At Mcl-1 [2] (3aD / 3eL mutations), the “Reduction in SPOT array signal for at least one of the negative controls, Mcl-1” value is listed as “less than 25%”.

For the substance “APOL6: peptide from APOL6, putative BH3 motif (KEDLKGNIDKLRALADDIDKTHKKFT)”, the “SPOT array signal as % of the Bim BH3 signal, Bcl-xL” value in the experiment with Bcl-xL [3] is on record as 17%.

For the substance EGEKEVEALKKSADWVSDWSSRP [BNIP3L], the “SPOT array signal as % of the Bim BH3 signal, Bfl-1” value on Bfl-1 [1] (setting [12]) is listed as 8%. The “SPOT array signal as % of the Bim BH3 signal, Bcl-xL” value on Bcl-xL [3] is on record as “less than 3%”. Also, at Mcl-1 [2] (setting [12]), the “SPOT array signal as % of the Bim BH3 signal, Mcl-1” value was “less than 3%”. In addition, at Bcl-2 [4], the “SPOT array signal as % of the Bim BH3 signal, Bcl-2” value is recorded as “less than 3%”. The “SPOT array signal as % of the Bim BH3 signal, Bcl-w” value at Bcl-w [5] was “less than 3%”.

Take IIRNIARHAAQVGASMDRSIPPG [Bid (X)]: the Kd is less than 1 µM on Bcl-w [6], greater than 10 µM on Bfl-1 [7], less than 1 µM on Bcl-2 [8] and less than 1 µM at Mcl-1 [9] (setting [13]). Besides, the Binder class (Kd bin) on Bcl-xL [10] (setting [13]) was greater than 10 µM.

In the case of MTQEVGQLLQDMGDDVYQQYRSL [Mule], in [11], the “Reduction in SPOT array signal when control mutations were introduced” value was “more than 30%” and the “SPOT array binding specificity among five prosurvival proteins” value is reported as “binding specifically to Mcl-1”.

For the substance PEIWYAQEIGRYGDEFNAYYARR, the Kd at Mcl-1 [9] (setting [14]) was greater than 10 µM. Also, at Bcl-xL [10] (setting [14]), the Binder class (Kd bin) was less than 1 µM.

Regarding PEIWYAQEINRIGDEVNAYYARR, on Mcl-1 [9] (setting [14]), the Kd is less than 1 µM. Besides, the Binder class (Kd bin) at Bcl-xL [10] (setting [14]) is greater than 10 µM.

On to PEIWYAQEIQRYGDEFNAYYARR, for which the Kd on Mcl-1 [9] (setting [14]) is greater than 10 µM. The Binder class (Kd bin) on Bcl-xL [10] (setting [14]) was less than 1 µM.

On to PEIWYAQEIRRAGDEFNAYYARR, for which the Kd on Mcl-1 [9] (setting [14]) is greater than 10 µM. Further, at Bcl-xL [10] (setting [14]), the Binder class (Kd bin) is less than 1 µM.

For PEIWYAQEIRRFGDEFNAYYARR, the Kd at Mcl-1 [9] (setting [14]) is greater than 10 µM. Moreover, the Binder class (Kd bin) at Bcl-xL [10] (setting [14]) was less than 1 µM.

In the case of PEIWYAQELERIGDEVNAYYARR, the Kd at Mcl-1 [9] (setting [14]) is less than 1 µM. At Bcl-xL [10] (setting [14]), the Binder class (Kd bin) was greater than 10 µM.

Take PEIWYAQELGRAGDEFNAYYARR: on Mcl-1 [9] (setting [14]), the Kd is greater than 10 µM. The Binder class (Kd bin) at Bcl-xL [10] (setting [14]) is less than 1 µM.

PEIWYAQELGRNGDEYNAYYARR: the Kd at Mcl-1 [9] (setting [14]) is greater than 10 µM. Besides, the Binder class (Kd bin) at Bcl-xL [10] (setting [14]) is less than 1 µM.

Consider PEIWYAQELGRYGDEYNAYYARR, for which, at Mcl-1 [9] (setting [14]), the Kd is greater than 10 µM. The Binder class (Kd bin) on Bcl-xL [10] (setting [14]) was less than 1 µM.

As to PEIWYAQELKRDGDEFNAYYARR, the Kd on Mcl-1 [9] (setting [14]) is greater than 10 µM. The Binder class (Kd bin) on Bcl-xL [10] (setting [14]) was less than 1 µM.

As to PEIWYAQELKRFGDENNAYYARR, the Kd on Mcl-1 [9] (setting [14]) is greater than 10 µM. Further, at Bcl-xL [10] (setting [14]), the Binder class (Kd bin) is less than 1 µM.

Turning to PEIWYAQELKRYGDENNAYYARR, the Kd on Mcl-1 [9] (setting [14]) was greater than 10 µM. For the same substance, on Bcl-xL [10] (setting [14]), the Binder class (Kd bin) was less than 1 µM.

With PEIWYAQELQRNGDEFNAYYARR, on Mcl-1 [9] (setting [14]), the Kd was greater than 10 µM. Besides, the Binder class (Kd bin) on Bcl-xL [10] (setting [14]) was less than 1 µM.

As to PEIWYAQELRRDGDEYNAYYARR, the Kd on Mcl-1 [9] (setting [14]) was greater than 10 µM. Besides, the Binder class (Kd bin) on Bcl-xL [10] (setting [14]) is less than 1 µM.

As for PEIWYAQELRRNGDEYNAYYARR, the Kd on Mcl-1 [9] (setting [14]) was greater than 10 µM. For the same substance, the Binder class (Kd bin) at Bcl-xL [10] (setting [14]) is less than 1 µM.

On to PEIWYAQEVKRYGDEYNAYYARR, for which the Kd at Mcl-1 [9] (setting [14]) was greater than 10 µM. Further, on Bcl-xL [10] (setting [14]), the Binder class (Kd bin) was less than 1 µM.

PEIWYAQEVQRIGDEVNAYYARR: on Mcl-1 [9] (setting [14]), the Kd is less than 1 µM. Moreover, the Binder class (Kd bin) at Bcl-xL [10] (setting [14]) is greater than 10 µM.

For RLAEVCAVLLRLGDELEMIRPSV [Bok], in experiment [11], the “Reduction in SPOT array signal when control mutations were introduced” value is “more than 30%” and the “SPOT array binding specificity among five prosurvival proteins” value is listed as “binding specifically to Mcl-1”.
